Literature values, collected in patent US20140343076A1, “PHARMACEUTICAL COMPOSITIONS OF LURASIDONE” (Cadila Healthcare Limited, priority 2013, published 2014).
Where a name gives a salt, the structure may show the parent alone.

- solubility in water: less than several
SMILES: O=C1[C@@H]2[C@H]3CC[C@H](C3)[C@@H]2C(=O)N1C[C@@H]1CCCC[C@H]1CN1CCN(c2nsc3ccccc23)CC1 [lurasidone, N-[4-[4-(1,2-benzisothiazol-3-yl)-1-piperazinyl]-(2R,3R)-2,3-tetramethylene-butyl]-(1′R,2′S,3′R,4′S)-2,3-bicyclo[2,2,1]heptanedicarboxyimide hydrochloride]
